Measured values from US4572913A, “Use of 3-(arylmethyleneamino)-1-aryl-2-pyrazolines in the prophylaxis and treatment of inflammation, pain, pyresis, and asthma” (Burroughs Wellcome Co., priority 1980, dated 1986).

Columns and labels:
cyclo-oxygenase = assay: inhibition of cyclo-oxygenase, enzyme assay according to the method of Blackwell and Flower; format: biochemical
lipoxygenase = assay: inhibition of lipoxygenase, enzyme assay according to the method of Blackwell and Flower; format: biochemical

Sequence of cyclo-oxygenase (P23219 24-599): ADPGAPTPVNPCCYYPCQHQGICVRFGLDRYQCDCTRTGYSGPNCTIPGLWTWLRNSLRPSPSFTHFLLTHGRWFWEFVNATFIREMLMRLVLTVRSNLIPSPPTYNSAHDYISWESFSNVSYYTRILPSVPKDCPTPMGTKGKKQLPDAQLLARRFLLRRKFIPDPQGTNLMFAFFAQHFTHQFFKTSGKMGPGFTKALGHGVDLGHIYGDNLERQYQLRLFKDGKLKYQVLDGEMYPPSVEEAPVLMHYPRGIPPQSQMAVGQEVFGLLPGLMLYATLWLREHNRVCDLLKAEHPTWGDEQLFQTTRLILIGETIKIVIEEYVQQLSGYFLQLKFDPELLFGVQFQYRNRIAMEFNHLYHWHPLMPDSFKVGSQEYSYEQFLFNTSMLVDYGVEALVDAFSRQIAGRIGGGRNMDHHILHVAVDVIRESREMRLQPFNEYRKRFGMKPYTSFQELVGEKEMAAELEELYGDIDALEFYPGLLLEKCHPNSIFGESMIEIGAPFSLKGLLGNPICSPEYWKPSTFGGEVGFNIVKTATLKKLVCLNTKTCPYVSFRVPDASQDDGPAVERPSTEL

Compound `FC(F)(F)c1cccc(N2CCC(N=Cc3ccccc3)=N2)c1` [Example 15, 3-Benzylideneamino-1-(3-trifluoromethylphenyl)-2-pyrazoline] has an IC50 (cyclo-oxygenase) of roughly 3000 nM and an IC50 (lipoxygenase) of less than 1000 nM.
With `FC(F)(F)c1cccc(N2CCC(N=Cc3cccc4ccccc34)=N2)c1` [Example 7, 3-(1-naphthylmethyleneamino)-1-(3-trifluoromethylphenyl)-2-pyrazoline] the IC50 (cyclo-oxygenase) was 10000 nM and the IC50 (lipoxygenase) was 6000 nM.
Work on `CC1CN(c2cccc(C(F)(F)F)c2)N=C1N=Cc1ccccc1O` (stereo not shown) [Example 18, 4-Methyl-3-salicylideneamino-1-(3-trifluoromethylphenyl)-2-pyrazoline] yielded an IC50 (cyclo-oxygenase) of roughly 1000 nM and an IC50 (lipoxygenase) of roughly 1000 nM.
With `Oc1ccccc1C=NC1=NN(c2cccc(C(F)(F)F)c2)CC1` [Example 4, 3-salicylideneamino-1-(3-trifluoromethylphenyl)-2-pyrazoline] the IC50 (cyclo-oxygenase) was roughly 3000 nM and the IC50 (lipoxygenase) was roughly 3000 nM.
For `FC(F)(F)c1cccc(N2CCC(N=Cc3ccc[nH]3)=N2)c1` [Example 3, 3-(2-pyrrolylmethyleneamino)-1-(3-trifluoromethylphenyl)-2-pyrazoline], the IC50 (cyclo-oxygenase) was less than 1000 nM and the IC50 (lipoxygenase) was 1000 nM.
In the case of `Cc1ccc(C=NC2=NN(c3ccc4ccccc4c3)CC2)cc1` [Example 8, 3-(4-methylbenzylideneamino)-1-(2-naphthyl)-2-pyrazoline], the IC50 (cyclo-oxygenase) is reported as 5000 nM and the IC50 (lipoxygenase) is reported as 12000 nM.
For `CC(C)(C)c1cccc(N2CCC(N)=N2)c1` [Example 13, 3-Amino-1-(3-t-butylphenyl)-2-pyrazoline], the IC50 (cyclo-oxygenase) was less than 1000 nM and the IC50 (lipoxygenase) was less than 1000 nM.
Work on `O=C(O)CCCCOc1cccc(O)c1C=NC1=NN(c2cccc(C(F)(F)F)c2)CC1` [Example 1, 3-(2-4'-carboxybutoxy-6-hydroxybenzylideneamino)-1-(3-trifluoromethylphenyl)-2-pyrazoline] yielded an IC50 (cyclo-oxygenase) of less than 3000 nM and an IC50 (lipoxygenase) of 10000 to 20000 nM.
`FC(F)(F)c1cccc(N2CCC(N=Cc3ccccn3)=N2)c1` [Example 2, 3-(2-pyridylmethyleneamino)-1-(3-trifluoromethylphenyl)-2-pyrazoline] gave an IC50 (cyclo-oxygenase) of 1000 nM and an IC50 (lipoxygenase) of roughly 3000 nM.
Compound `Oc1ccccc1C=NC1=NN(c2ccc(Br)c(C(F)(F)F)c2)CC1` [Example 11, 1-(4-bromo-3-trifluoromethylphenyl)-3-(2-hydroxybenzylideneamino)-2-pyrazoline] has an IC50 (cyclo-oxygenase) of roughly 5000 nM and an IC50 (lipoxygenase) greater than 10000 nM.
`COc1ccc(C=NC2=NN(c3ccc(Br)c(C(F)(F)F)c3)CC2)cc1` [Example 12, 1-(4-bromo-3-trifluoromethylphenyl)-3-(4-methoxybenzylideneamino)-2-pyrazoline] showed an IC50 (cyclo-oxygenase) of roughly 1000 nM and an IC50 (lipoxygenase) of roughly 1000 nM.
